From publication PMC8348780, “Preparation and Evaluation of Novel Folate Isonitrile ^99mTc Complexes as Potential Tumor Imaging Agents to Target Folate Receptors” (Molecules, 2021)

Assays:
[1] = biological target: T1, folate receptor (KB cells) (Homo sapiens, UniProt P15328); assay: In vitro competitive binding with KB cells; conditions: 37 °C, 2 h, competitive binding with inhibitor
T1 construct: endogenous in cells; host or cells: KB cells
Procedure: KB cells were cultured with FFRPMI 1640 medium 24 h in advance on a 48-well plate with 5 × 10^4 cells per well. The labeling solution was diluted to 5 μCi/mL with the same medium after growing, and the inhibitor was prepared at different concentrations. The 48-well plates were divided into eight groups, and each group was incubated with 100 μL of inhibitor solution, 100 μL of diluted labeled solution (5 μCi/mL), and 200 μL of medium at 37 °C for 2 h.
After removing the cell plate from the incubator, the medium was removed, and the cells were washed with PBS (0.1 M, pH 7.4). The washed cells were lysed with NaOH (1 M) for 5 min. Pyrolysates were collected in the hoses, and the radioactivity count of each hose was measured by a γ-counter. The data were analyzed with GraphPad Prism 5.0 and nonlinearly fit to the log IC50 ± SD value.

[2] = tested on: KB tumor-bearing mice; assay: Biodistribution study in KB tumor-bearing mice; assay type: in vivo, BALB/c nude mice; conditions: for Tumor uptake: KB tumor
Procedure: The biodistribution experiments were divided into normal groups and inhibition groups (n = 3), in which the inhibition group was injected with inhibitor (about 4 × 10^4 µg/kg) 30 min in advance. The KB tumor-bearing mice were decapitated 30 and 120 min after the tail vein injection of 0.1 mL labeled solution (about 7.4 × 10^4 Bq). The heart, liver, lung, kidney, spleen, stomach, bone, muscle, intestine, tumor, blood, and other related tissues and organs were wiped clean and weighed, and the radioactivity count was measured. Each tissue per gram of injection dose (%ID/g) was calculated.

[3] = Stability in saline / radiolabeling solution at room temperature (RCP by radio-HPLC); assay type: physicochemical; conditions: 4 h
Procedure: (§1) The complexes were determined by ITLC/SG of the ACD system and radio-HPLC. The ITLC/SG trip was cut into 10 equal parts, and radioactive counting of ITLC strips was determined by a γ-counter. ITLC results of both complexes were as follows: in ACD solution, [^99mTc]Tc-CN5FA and [^99mTc]Tc-CNPFA stayed at the origin (Rf = 0–0.1), while ^99mTcO4^− (Rf = 0.9–1.0) and ^99mTcO2·nH2O (Rf = 0.8–1.0) were moved to the front. Radio-HPLC was analyzed by a mobile phase system consisting of 0.1% TFA water (solvent A) and 0.1% TFA acetonitrile (solvent B) with a gradient of 0−2 min 10% B, 2−5 min 10%−90% B, 10−20 min 90% B, and 20−25 min 90%−10% B (system B) at a flow rate of 1 mL/min. All experiments were performed in triplicate.
(§2) The stability of [^99mTc]Tc-CN5FA and [^99mTc]Tc-CNPFA in vitro was evaluated by measuring the RCP of the complexes. Stability in saline was achieved by holding the solution at room temperature for 4 h. Stability in the serum was achieved by mixing 100 μL of [^99mTc]Tc-CN5FA or [^99mTc]Tc-CNPFA with 200 μL of mouse serum at 37 °C for 4 h. After precipitation using acetonitrile, centrifugation, and concentration, the solutions were analyzed by radio-HPLC.

[4] = Stability in mouse serum at 37 °C (RCP by radio-HPLC); assay type: in vitro ADME; conditions: 4 h
Procedure: as §1, §2

[5] = tested on: KB tumor-bearing mice; assay: SPECT/CT imaging study in KB tumor-bearing mice; assay type: in vivo, BALB/c nude mice; conditions: 2 h post injection, about 18.5 MBq i.v.
Procedure: The SPECT/CT imaging experiments were also divided into a normal group and an inhibition group (n = 3). The labeled solution (about 18.5 MBq) was injected into the tail vein of nude mice bearing KB tumor. The inhibition group was injected with 100 µg FA (about 4 × 10^4 µg/kg) 30 min in advance. After 2 h, the SPECT/CT scan was performed in anesthetized mice by using 1.5% isoflurane. The SPECT acquisition (peak value 140 keV, 20% width, 90° rotation, MMP 919 Collimator) was performed after 4 min of CT scanning (512 views, 2 × 2 binding, 75 kV, exposure time 230 ms). SPECT/CT images were made using HiSPECT software and vivoquant 2.5 software.

[6] = Partition coefficient, 1-octanol / phosphate buffer pH 7.4; assay type: physicochemical; conditions: 1-octanol / phosphate buffer 0.025 M
Procedure: The partition coefficient was measured as follows: 1.9 mL of phosphate buffer solution (0.025 M, pH 7.4), 2.0 mL of 1-octanol, and 0.1 mL of ^99mTc-CN5FA or ^99mTc-CNPFA solution were added to the centrifuge tube, and the sample was swirled for 5 min and centrifuged for 5 min (3000 r/min). Then, the radioactivity counts of the two phases were measured by taking 0.1 mL from the organic phase and the water phase. The partition coefficient P was calculated. The final partition coefficient was expressed as log P ± SD.

[7] = 2 h p.i., block: FA about 4 × 10^4 µg/kg 30 min in advance

T1 sequence (P15328 25-257): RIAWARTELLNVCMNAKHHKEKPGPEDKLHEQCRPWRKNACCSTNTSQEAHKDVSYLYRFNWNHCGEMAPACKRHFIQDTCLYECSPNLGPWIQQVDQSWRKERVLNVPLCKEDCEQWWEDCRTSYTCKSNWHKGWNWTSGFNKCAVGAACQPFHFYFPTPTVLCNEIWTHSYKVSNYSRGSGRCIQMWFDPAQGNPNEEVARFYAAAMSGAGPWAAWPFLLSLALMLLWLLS

IC50 [1]: 3.8 ± 0.07 nM
T/B (tumor/blood ratio) ([2]; 0.5 h p.i.): 1.02
T/M (tumor/muscle ratio) ([2]; 0.5 h p.i.): 2.82
Blood uptake ([2]; 0.5 h p.i., i.v., n = 3): 4.08 ± 0.54 %ID/g
Bone uptake ([2]; 0.5 h p.i., i.v., n = 3): 1.77 ± 0.06 %ID/g
Heart uptake ([2]; 0.5 h p.i., i.v., n = 3): 1.92 ± 0.06 %ID/g
Intestines uptake ([2]; 0.5 h p.i., i.v., n = 3): 4.98 ± 1.57 %ID/g
Kidney uptake ([2]; 0.5 h p.i., i.v., n = 3): 81.30 ± 4.69 %ID/g
Liver uptake ([2]; 0.5 h p.i., i.v., n = 3): 15.84 ± 1.19 %ID/g
Lung uptake ([2]; 0.5 h p.i., i.v., n = 3): 4.01 ± 0.30 %ID/g
Muscle uptake ([2]; 0.5 h p.i., i.v., n = 3): 1.48 ± 0.07 %ID/g
Spleen uptake ([2]; 0.5 h p.i., i.v., n = 3): 3.65 ± 0.72 %ID/g
Stomach uptake ([2]; 0.5 h p.i., i.v., n = 3): 6.67 ± 0.73 %ID/g
Thyroid uptake ([2]; 0.5 h p.i., i.v., n = 3): 0.08 ± 0.02 %ID
T/B (tumor/blood ratio) ([2]; 2 h p.i.): 1.73
T/M (tumor/muscle ratio) ([2]; 2 h p.i.): 3.01
Blood uptake [2, 7]: 1.97 ± 0.34 %ID/g
Bone uptake [2, 7]: 1.02 ± 0.10 %ID/g
Heart uptake [2, 7]: 0.81 ± 0.12 %ID/g
Intestines uptake [2, 7]: 1.70 ± 0.22 %ID/g
Kidney uptake [2, 7]: 37.60 ± 2.46 %ID/g
Liver uptake [2, 7]: 10.88 ± 1.03 %ID/g
Lung uptake [2, 7]: 2.11 ± 0.28 %ID/g
Muscle uptake [2, 7]: 0.51 ± 0.09 %ID/g
Spleen uptake [2, 7]: 3.30 ± 0.66 %ID/g
Stomach uptake [2, 7]: 2.18 ± 0.22 %ID/g
Thyroid uptake [2, 7]: 0.05 ± 0.01 %ID
Blood uptake ([2]; 2 h p.i., i.v., n = 3): 1.46 ± 0.03 %ID/g
Bone uptake ([2]; 2 h p.i., i.v., n = 3): 0.79 ± 0.11 %ID/g
Heart uptake ([2]; 2 h p.i., i.v., n = 3): 1.30 ± 0.09 %ID/g
Intestines uptake ([2]; 2 h p.i., i.v., n = 3): 1.60 ± 0.24 %ID/g
Kidney uptake ([2]; 2 h p.i., i.v., n = 3): 80.25 ± 1.23 %ID/g
Liver uptake ([2]; 2 h p.i., i.v., n = 3): 10.39 ± 0.23 %ID/g
Lung uptake ([2]; 2 h p.i., i.v., n = 3): 2.04 ± 0.06 %ID/g
Muscle uptake ([2]; 2 h p.i., i.v., n = 3): 0.84 ± 0.04 %ID/g
Spleen uptake ([2]; 2 h p.i., i.v., n = 3): 2.85 ± 0.26 %ID/g
Stomach uptake ([2]; 2 h p.i., i.v., n = 3): 3.65 ± 0.75 %ID/g
Thyroid uptake ([2]; 2 h p.i., i.v., n = 3): 0.06 ± 0.01 %ID
Tumor uptake ([2]; 0.5 h p.i., i.v., n = 3): 4.18 ± 0.36 %ID/g
Tumor uptake [2, 7]: 1.62 ± 0.08 %ID/g
Tumor uptake ([2]; 2 h p.i., i.v., n = 3): 2.53 ± 0.12 %ID/g
RCP after incubation [3]: more than 95%
RCP after incubation [4]: more than 95%
log P [6]: −2.28 ± 0.02
Compound: [99Tc+].[C-]#[N+]CCOCCOCCOCCOCCC(=O)NCCNC(=O)CC[C@H](NC(=O)c1ccc(NCc2cnc3nc(N)[nH]c(=O)c3n2)cc1)C(=O)O.[C-]#[N+]CCOCCOCCOCCOCCC(=O)NCCNC(=O)CC[C@H](NC(=O)c1ccc(NCc2cnc3nc(N)[nH]c(=O)c3n2)cc1)C(=O)O.[C-]#[N+]CCOCCOCCOCCOCCC(=O)NCCNC(=O)CC[C@H](NC(=O)c1ccc(NCc2cnc3nc(N)[nH]c(=O)c3n2)cc1)C(=O)O.[C-]#[N+]CCOCCOCCOCCOCCC(=O)NCCNC(=O)CC[C@H](NC(=O)c1ccc(NCc2cnc3nc(N)[nH]c(=O)c3n2)cc1)C(=O)O.[C-]#[N+]CCOCCOCCOCCOCCC(=O)NCCNC(=O)CC[C@H](NC(=O)c1ccc(NCc2cnc3nc(N)[nH]c(=O)c3n2)cc1)C(=O)O.[C-]#[N+]CCOCCOCCOCCOCCC(=O)NCCNC(=O)CC[C@H](NC(=O)c1ccc(NCc2cnc3nc(N)[nH]c(=O)c3n2)cc1)C(=O)O [[^99mTc]Tc-CNPFA]
Visualization of tumor lesions by SPECT/CT [5]: clearly visualized
